The values that follow come from article PMC4509514, “Saccharomyces cerevisiae Ski7 Is a GTP-Binding Protein Adopting the Characteristic Conformation of Active Translational GTPases” (Structure(London, England:1993), 2015).

SMILES strings stand for the structures.

The test addresses T1, Ski7C (Saccharomyces cerevisiae, UniProt Q08491).
T1 construct: gene SKI7; C-terminal GTPase-like region, residues 254-747; N-terminal thioredoxin tag cut with PreScission; expressed in E. coli BL21; one molecule per asymmetric unit (SeMet form for phasing)
T1 sequence (Q08491 254-747): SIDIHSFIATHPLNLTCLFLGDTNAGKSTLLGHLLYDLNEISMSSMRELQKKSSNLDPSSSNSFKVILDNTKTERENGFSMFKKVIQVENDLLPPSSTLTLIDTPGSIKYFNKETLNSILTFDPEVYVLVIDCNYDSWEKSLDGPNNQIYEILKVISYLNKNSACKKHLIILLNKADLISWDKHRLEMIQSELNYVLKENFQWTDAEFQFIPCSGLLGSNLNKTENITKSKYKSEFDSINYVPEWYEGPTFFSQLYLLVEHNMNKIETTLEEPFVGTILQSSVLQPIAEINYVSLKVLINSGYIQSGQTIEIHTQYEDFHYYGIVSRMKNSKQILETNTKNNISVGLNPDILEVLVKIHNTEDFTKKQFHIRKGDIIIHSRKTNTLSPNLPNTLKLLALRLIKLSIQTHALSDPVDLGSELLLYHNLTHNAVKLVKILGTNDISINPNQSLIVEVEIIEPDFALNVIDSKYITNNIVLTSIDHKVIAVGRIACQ
Description: thermal shift (Thermofluor). The test is classed as binding. Conditions: nucleotide analog added during alkaline phosphatase treatment; nucleotide-free protein as reference.

In general, Tm refers to the temperature at the midpoint of the melting transition.

With `Nc1nc2c(ncn2[C@@H]2O[C@H](COP(=O)(O)CP(=O)(O)O)[C@@H](O)[C@H]2O)c(=O)[nH]1` [GMPCP], the Tm is 44.0 °C.

In the case of `Nc1nc2c(ncn2[C@@H]2O[C@H](COP(=O)(O)OP(=O)(O)NP(=O)(O)O)[C@@H](O)[C@H]2O)c(=O)[nH]1` [GMPPNP], the melting temperature (Tm) was determined as 47.6 °C.
